Measurements reported in patent US10765684B2, “Reduction of side effects from aromatase inhibitors used for treating breast cancer” (HAVAH THERAPEUTICS PTY LTD, priority 2005, dated 2020).

Experiments:
post-menopausal patients [1] = system: post-menopausal patients; parameters: species or system post-menopausal women; conditions: in vivo
Source text: An endocrine subscale (FACT-ES) to accompany a well-validated QOL measure called the FACT-B (Brady, M J., et al., Journal of Clinical. Oncology., Vol. 15, No. 3 (March 1997) pp. 974-986, which is incorporated in its entirety) was developed specifically for use in trials using drugs likely to cause endocrine related symptoms. See Fallowfield, L J, et al., Breast Cancer Research and Treatment, Vol. 55, No. 2, 1999, pp. 189-199, which is incorporated herein by reference in its entirety. Also, FACT-ES is a validated questionnaire designed to measure quality of life of women with breast cancer who are being treated with endocrine therapies. It consists of the FACT-B questionnaire plus an additional endocrine subscale. FACT-B (breast) consists of the FACT-G (general) QOL tool for cancer patients plus the Breast Cancer subscale. FACT-ES has been developed to measure QOL in patients receiving endocrine therapy for breast cancer. This instrument (FACT-ES) should, therefore, be sensitive to QOL changes in patients in this trial. […]
At the three assessment times during the study, the quality of life for each patient was assessed using standard Functional Assessment of Cancer Therapy-Endocrine Symptoms (FACT-ES) questionnaire (See FIG. 8), which questionnaire is a standard method for determining the occurrence and prominence of treatment-related symptoms and side-effects in breast cancer patients. […]

post-menopausal patients [2] = conditions: in vivo
Source text: The Western Ontario and McMaster Universities (WOMAC) Osteoarthritis Index™ consists of three VAS, one each pertaining to pain, joint stiffness and physical function. This then gives the WOMAC™ osteoarthritis index composite score.
Five post-menopausal women having similar patient socio-demographic characteristics and ranging in age from 49 years to 56 years (median age 54) were selected for study. […]
(§1) Each woman selected was subjected to four weeks of aromatase inhibitor therapy (anastrozole 1 mg (ARIMIDEX®) orally as a tablet once a day), and thereafter to an additional eight weeks of the same aromatase inhibitor therapy in combination with the oral administration of 40 mg of testosterone undecanoate as a tablet once a day. During this study, side effects associated with aromatase inhibitor treatment were measured at three separate times: prior to the first week of aromatase inhibitor therapy, following the fourth week of aromatase inhibitor therapy but before administration of testosterone undecanoate was begun, and following the eighth week of combined aromatase inhibitor and androgen replacement therapy.
The y axis is a visual analogue pain scale. Specifically, the y axis indicates a percentage score of a subjective quantification of pain measured out of 100.

[3] = serum hormone levels in post-menopausal breast cancer patients; type: in vivo, post-menopausal women; conditions: versus pre-therapy, FIG. 2
Source text: Five post-menopausal women having similar patient socio-demographic characteristics and ranging in age from 49 years to 56 years (median age 54) were selected for study. Each woman had been diagnosed with node-negative estrogen receptor and PR (Progesterone Receptor) positive BCa (Breast cancer), with tumor sizes ranging from 1.9 cm to 2.3 cm (median tumor size of 2.1 cm) and selected post-surgery (e.g., mastectomy, lumpectomy, or quadrantectomy for primary breast cancer) and post-chemotherapy. None had been subjected to previous attempts at hormone replacement therapy.
as §1
The y axis is picomoles/L of serum.

post-menopausal patients [4] = conditions: in vivo; remark: listed apart in the source
Source text: Another embodiment of this invention involves measuring cognitive function, including processing speed, working memory, visual memory, and verbal memory.
Five post-menopausal women having similar patient socio-demographic characteristics and ranging in age from 49 years to 56 years (median age 54) were selected for study. Each woman had been diagnosed with node-negative estrogen receptor and PR (Progesterone Receptor) positive BCa (Breast cancer), with tumor sizes ranging from 1.9 cm to 2.3 cm (median tumor size of 2.1 cm) and selected post-surgery (e.g., mastectomy, lumpectomy, or quadrantectomy for primary breast cancer) and post-chemotherapy. […]
Each woman selected was subjected to four weeks of aromatase inhibitor therapy (anastrozole 1 mg (ARIMIDEX®) orally as a tablet once a day), and thereafter to an additional eight weeks of the same aromatase inhibitor therapy in combination with the oral administration of 40 mg of testosterone undecanoate as a tablet once a day. During this study, side effects associated with aromatase inhibitor treatment were measured at three separate times: prior to the first week of aromatase inhibitor therapy, following the fourth week of aromatase inhibitor therapy but before administration of testosterone undecanoate was begun, and following the eighth week of combined aromatase inhibitor and androgen replacement therapy. […]

[5] = cited from earlier work
[6] = cited from earlier work; remark: listed apart in the source

In the case of `CC(C)(C#N)c1cc(Cn2cncn2)cc(C(C)(C)C#N)c1` [Al only, anastrozole], the “quality of life as measured by FACT-ES questionnaires” value (post-menopausal patients [1]) is reported as “decreased”, the reported arthralgia symptoms (post-menopausal patients [2]) is reported as “elevated levels of arthralgia” and the “average estradiol (E2) serum level” value ([3]; following the fourth week of aromatase inhibitor therapy (anastrozole 1 mg once a day)) is reported as “drops significantly”. The “remainder of the serum hormone levels (T, FreeT, DHT)” value ([3]; following the fourth week of aromatase inhibitor therapy) was “relatively unchanged” and the “cognitive function scores (processing speed, working memory, visual memory, verbal memory; mean Z score)” value (post-menopausal patients [4]) was “decreased across all four ability types”.
In the case of `CCC1(c2ccc(N)cc2)CCC(=O)NC1=O` (stereo not shown) [aminoglutethimide], the tolerability ([5]; Cash, Brough et al 1967) is listed as “poorly tolerated” and the adrenal suppression ([5]; limited the use of the drug) is listed as “marked adrenal suppression”.
For `CCCCCCCCCCC(=O)O[C@H]1CC[C@H]2[C@@H]3CCC4=CC(=O)CC[C@]4(C)[C@H]3CC[C@]12C` [testosterone undecanoate], the oral bioavailability ([6]; by-passes the liver via the lymphatic system) is listed as “orally bioavailable”.
For `C[C@]12CC[C@H]3[C@@H](CCC4=CC(=O)CC[C@@]43C)[C@@H]1CC[C@@H]2O` [testosterone], the “testosterone broken down in the liver as it is absorbed from the gut” value ([6]; oral delivery) is listed as 80-90% and the “testosterone broken down in the intestines by aromatase and other metabolic pathways” value ([6]; oral) is listed as “approximately 85%”.
